Activity calls are given as the source filed them. The rule behind the calls is not given here.

The target in this experiment is Luciferin 4-monooxygenase (Photinus pyralis) (UniProt P08659). Briefly: firefly luciferase inhibitor potency, HSP90 counter-screen, dose response, artefact control for HSP90 inhibitor project, biochemical, luminescence (AID 1912). The following applies: purified firefly luciferase, luminescence inhibition. Background: A counterscreen serves to expose hits that act by an unwanted route or on another target.
Luciferin 4-monooxygenase (Photinus pyralis), sequence (P08659 whole entry, looked up): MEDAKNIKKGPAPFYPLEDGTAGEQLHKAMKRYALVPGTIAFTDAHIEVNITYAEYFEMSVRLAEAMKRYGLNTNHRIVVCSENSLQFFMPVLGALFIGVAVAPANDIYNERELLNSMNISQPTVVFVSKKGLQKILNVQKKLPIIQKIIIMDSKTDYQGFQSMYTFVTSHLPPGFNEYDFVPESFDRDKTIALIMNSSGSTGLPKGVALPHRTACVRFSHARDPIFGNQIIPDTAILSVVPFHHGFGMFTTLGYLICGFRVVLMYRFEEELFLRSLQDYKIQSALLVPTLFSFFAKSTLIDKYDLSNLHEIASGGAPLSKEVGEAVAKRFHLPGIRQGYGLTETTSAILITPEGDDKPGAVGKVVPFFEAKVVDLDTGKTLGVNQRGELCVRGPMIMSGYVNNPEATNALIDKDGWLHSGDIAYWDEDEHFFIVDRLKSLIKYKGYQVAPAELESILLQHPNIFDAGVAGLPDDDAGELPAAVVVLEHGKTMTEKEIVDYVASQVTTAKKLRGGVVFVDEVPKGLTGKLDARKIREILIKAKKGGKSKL
For `Nc1c(-c2ccccc2)cnn1-c1ccc(C(=O)O)cc1`, the IC50 result is “inactive”.

As to `O=C(OCc1ccccn1)c1ccc(COc2ccc3ccccc3c2)o1`, the IC50 was > 60 µM (inactive).

For `CCOC(=O)c1csc(COc2ccc(OC)cc2)n1`, the IC50 is > 60 µM (inactive).

As to `O=C(O)c1cccc(-n2c(O)c(C=C3N=c4ccccc4=N3)sc2=S)c1`, the IC50 is > 60 µM (inactive).

With `COc1cccc(-c2cc3nc4c(c(NCC(C)(C)CN(C)C)n3n2)CCCC4)c1`, the IC50 is > 60 µM (inactive).

As for `COc1cc(/C=N/Nc2ccc(Cl)c(C(=O)O)c2)ccc1OC(=O)c1ccccc1F`, the IC50 is > 60 µM (inactive).

As to `COC(=O)c1cc(C)nc2c1C(=O)C(=O)C=C2N1CCOCC1`, the IC50 is > 20 µM (inactive).

With `O=[N+]([O-])/C=C/c1ccc2c(ccn2Cc2ccccc2)c1`, the IC50 is > 60 µM (inactive).

`Cc1nc(CS(=O)(=O)c2ccc(Cl)cc2)sc1C(=O)O`: the IC50 was > 60 µM (inactive).

For the compound `C=CCc1ccc(OCc2ccc(C(=O)OC)o2)c(OC)c1`, the IC50 is > 60 µM (inactive).

Turning to `Nc1cc(-c2ccccc2)ccc1O`, the IC50 was > 60 µM (inactive).

`CC(=O)CSc1nnc(-c2ccc3c(c2)OCO3)o1`: the IC50 entry was “inactive”.

On to `COC(=O)c1ccc(NC(=O)c2ccc(C)cc2)o1`, for which the IC50 was > 60 µM (inactive).

For `CS(=O)(=O)c1ccc(-c2cn3cc(C(=O)O)ccc3n2)cc1`, the IC50 result is “inactive”.

In the case of `COC(=O)c1ccc(N/C=C/C(=O)c2ccccc2)cc1`, the IC50 result is “inactive”.

Take `Cc1cc(C)c(S(=O)(=O)/N=C2\C=C(Nc3ccc(C(=O)O)cc3)C(=O)c3ccccc32)c(C)c1`: the IC50 was > 60 µM (inactive).

For the compound `CCC(=O)Nc1ccccc1C(=O)OCC(=O)c1ccccc1`, the IC50 was > 60 µM (inactive).

As to `O=C(O)c1cccc(NC(=S)NC(NC(=O)c2cccc([N+](=O)[O-])c2)C(Cl)(Cl)Cl)c1` (centres undefined), the IC50 was > 60 µM (inactive).

For `CCOC(=O)c1csc(NC(=O)c2cc3ccccc3o2)n1`, the IC50 was > 60 µM (inactive).

For the compound `COC(=O)c1ccccc1OCCCOc1ccc(C=O)cc1OC`, the IC50 was > 60 µM (inactive).

On to `C=CCn1c(NS(=O)(=O)c2ccccc2)c(S(=O)(=O)c2ccc(C)cc2)c2nc3ccccc3nc21`, for which the IC50 was > 60 µM (inactive).

`CN1C(=O)S/C(=C/c2ccc(OCc3cccc(C(=O)O)c3)cc2)C1=O`: the IC50 was > 20 µM (inactive).

On to `Cc1cc(NO)nc(-c2ccc(Br)cc2)n1`, for which the IC50 was > 60 µM (inactive).

Consider `COc1ccccc1Nc1nn2c(=O)c3ccc(C(=O)NCc4cccnc4)cc3nc2s1`, for which the IC50 is > 60 µM (inactive).

For the compound `O=c1oc2ccc(Cl)cc2nc1/C=C(\O)c1ccco1`, the IC50 is > 60 µM (inactive).

Consider `CCOC(=O)c1sc(NC(=O)c2ccc(C)o2)nc1C`, for which the IC50 was > 60 µM (inactive).

As for `CCOC(=O)c1csc(NC(=O)c2ccc3c(c2)OCCO3)n1`, the IC50 is > 60 µM (inactive).

For `O=C1c2cc(F)ccc2-n2c1nc1ccccc1c2=O`, the IC50 was > 60 µM (inactive).

With `O=C(CN1C(=O)c2ccccc2S1(=O)=O)N1CCc2ccccc21`, the IC50 was > 60 µM (inactive).

Turning to `O=[N+]([O-])c1ccc(S(=O)(=O)N2CCN=C2SCc2ccc(F)cc2)cc1`, the IC50 is > 60 µM (inactive).

For the compound `O=C(O)c1cc(N/N=C/c2c[nH]c3ccccc23)ccc1Cl`, the IC50 was > 60 µM (inactive).

With `COC(=O)c1ccc2nc(NC(=O)C3CC3)sc2c1`, the IC50 is > 60 µM (inactive).

`Cc1c(-c2nc(-c3ccc(C(F)(F)F)cc3)no2)n(C)oc1=O`: the IC50 is > 60 µM (inactive).

Take `COC(=O)C1CCN(C(=O)c2ccc3nc(-c4cccc(OC)c4)oc3c2)CC1`: the IC50 is > 60 µM (inactive).

Turning to `COC(=O)c1ccccc1NC1=C/C(=N\S(=O)(=O)c2ccc(C(=O)O)cc2)c2ccccc2C1=O`, the IC50 is > 60 µM (inactive).

For the compound `Cc1ccc2oc(=O)c(/C=C(\O)c3ccco3)nc2c1`, the IC50 is > 60 µM (inactive).

Regarding `Cc1ccc(C(=O)CSc2ccccc2C(=O)O)cc1`, the IC50 entry was “inactive”.

As for `Cc1cccc(N(O)C(=O)Nc2cccc(Cl)c2)c1`, the IC50 was > 60 µM (inactive).

`O=C(O)c1cc(N/N=C/c2cccnc2)ccc1Cl`: the IC50 was > 60 µM (inactive).

For the compound `COC(=O)c1ccc(COc2ccc3c(C)c(C)c(=O)oc3c2)o1`, the IC50 is > 60 µM (inactive).

Consider `O=C(CSc1ncccc1C(=O)O)c1ccc2ccccc2c1`, for which the IC50 entry was “inactive”.

In the case of `Cc1ccccc1NC1=C/C(=N\S(=O)(=O)c2ccc(C(=O)O)cc2)c2ccccc2C1=O`, the IC50 entry is “inactive”.

In the case of `O=[N+]([O-])c1ccc(N=Nc2ncc[nH]2)cc1`, the IC50 was > 60 µM (inactive).

Take `COC(=O)c1ccc(COc2ccc3c(c2)CCC3)o1`: the IC50 is > 60 µM (inactive).

On to `Cc1nc2ccc(C(=O)O)cc2[nH]1`, for which the IC50 was > 60 µM (inactive).

With `O=C1C(Nc2ccc(O)cc2)=C/C(=N/S(=O)(=O)c2cccs2)c2ccccc21`, the IC50 result is “inactive”.

Turning to `CC(=O)c1ccc(N=Nc2c(C)[nH]n(-c3ccccc3)c2=O)cc1`, the IC50 was > 60 µM (inactive).

With `O=C(Cc1ccccc1)N1CCN(S(=O)(=O)c2ccc([N+](=O)[O-])cc2)CC1`, the IC50 is > 60 µM (inactive).

With `COc1cc(/C=C/[N+](=O)[O-])ccc1OCc1cccc(C(=O)O)c1`, the IC50 result was “inactive”.

With `CCc1ccc(S(=O)(=O)/N=C2\C=C(Nc3ccc(C(=O)O)cc3)C(=O)c3ccccc32)cc1`, the IC50 was > 60 µM (inactive).

As for `Cc1cc2ccccc2n1CCNC(=O)c1ccccc1`, the IC50 is > 60 µM (inactive).

`O=C(O)c1ccc(S(=O)(=O)/N=C2\C=C(Nc3ccccc3F)C(=O)c3ccccc32)cc1`: the IC50 is > 60 µM (inactive).

For `CC(C)Sc1nc(SCC(=O)NCc2ccco2)c2c3c(sc2n1)COC(C)(C)C3`, the IC50 is > 60 µM (inactive).

Regarding `CCc1ccc(S(=O)(=O)/N=C2\C=C(Nc3cccc(C(=O)O)c3)C(=O)c3ccccc32)cc1`, the IC50 was > 60 µM (inactive).

On to `CCOc1ccc(-c2nc(CN(Cc3ccccc3)C[C@@H]3CCC(=O)N3)c(C)o2)cc1`, for which the IC50 is > 60 µM (inactive).

On to `COc1cc(/C=N/Nc2ccc(Cl)c(C(=O)O)c2)ccc1OC(=O)c1ccco1`, for which the IC50 is > 60 µM (inactive).

On to `Cc1ccc2oc(=O)c(/C=C(\O)c3cccs3)nc2c1`, for which the IC50 is > 60 µM (inactive).

On to `O=C(CN1C(=O)c2ccccc2S1(=O)=O)c1ccc2c(c1)OCCCO2`, for which the IC50 result was “inactive”.

Take `CC(C)(C)c1ccc(C(=O)c2c[nH]c(C(=O)O)c2)cc1`: the IC50 entry is “inactive”.

As for `COC(=O)c1ccccc1OCCCOc1ccc(C)cc1OC`, the IC50 is > 60 µM (inactive).

As to `Cc1ccc(/C=C2\SC(=S)N(CCCC(=O)Nc3ccccn3)C2=O)cc1`, the IC50 is > 60 µM (inactive).

`CCC(C)c1ccc(OCc2ccc(C(=O)OC)o2)cc1` (centres undefined): the IC50 is > 60 µM (inactive).

As for `Cc1nc(NC(=O)/C=C/c2ccccc2)sc1C(=O)Nc1ccccc1Cl`, the IC50 was > 60 µM (inactive).

In the case of `COc1cc(N2Cc3ccccc3C2)ccc1C=O`, the IC50 was > 60 µM (inactive).

Turning to `CCCc1ccc(OCc2ccc(C(=O)N3CCSCC3)o2)cc1`, the IC50 entry was “inactive”.

On to `CCOC(=O)C1=C(c2ccc(OC)cc2)C(=O)c2ccccc2C1=O`, for which the IC50 was > 60 µM (inactive).

With `COc1cc(/C=N/Nc2ccc(Cl)c(C(=O)O)c2)ccc1OC(=O)c1cccs1`, the IC50 was > 60 µM (inactive).

On to `Cc1[nH]n(-c2ccccc2)c(=O)c1N=Nc1ccc(C(N)=O)cc1`, for which the IC50 was > 60 µM (inactive).

As to `CC(=O)CSc1ccc(-c2nc3ccccc3[nH]2)cn1`, the IC50 is > 60 µM (inactive).

For the compound `CCCCOc1ccc(-c2cc(C(=O)NNC(=S)NCC)c3ccccc3n2)cc1`, the IC50 result was “inactive”.

Take `COc1ccc(-c2cc3c(=O)n(CC(=O)NCCCN4CCC(Cc5ccccc5)CC4)ncn3n2)cc1`: the IC50 entry is “inactive”.

For the compound `CC1=NN(c2ccccc2)C(=O)/C1=C\N(O)c1ccccc1`, the IC50 was > 60 µM (inactive).

Take `Cc1ccc(S(=O)(=O)/N=C2\C=C(Nc3cccc(C(=O)O)c3)C(=O)c3ccccc32)cc1`: the IC50 is > 60 µM (inactive).

On to `CCN(CC)c1ccc2cc(NC(=O)CCC(=O)O)c(=O)oc2c1`, for which the IC50 is > 60 µM (inactive).

Regarding `CCc1ccc(Nc2n[n+](-c3ccccc3)c(-c3ccc(N(CC)CC)cc3)s2)cc1`, the IC50 was > 60 µM (inactive).

As for `CC(=O)Nc1ccccc1OCC(=O)c1cc(C)n(Cc2cccs2)c1C`, the IC50 is > 60 µM (inactive).

Consider `CCN(CC)c1ccc(SS(=O)(=O)O)cc1`, for which the IC50 was > 60 µM (inactive).

As for `COCCn1c(C)cc(C(=O)Cn2nc(C(=O)O)c3ccccc3c2=O)c1C`, the IC50 entry was “inactive”.

For the compound `Cc1ccc2nc(NC(=O)CSCC(=O)OCC(=O)c3ccccc3)sc2c1`, the IC50 is > 60 µM (inactive).

`Cc1oc(-c2ccc(-c3ccccc3)cc2)nc1CN(C)C1CCOC1` (centres undefined): the IC50 is > 60 µM (inactive).

Take `CCOC(=O)C1CCCN(C(=O)c2sc3nc(-c4ccc(OC)cc4)cn3c2C)C1` (centres undefined): the IC50 is > 60 µM (inactive).

As for `[O-]/[N+](=C\c1ccco1)c1ccc(Cl)cc1`, the IC50 was > 60 µM (inactive).

`Cc1nc(NC(=O)c2cccc(Cl)c2)sc1C(=O)N1CCCCC1`: the IC50 is > 60 µM (inactive).

On to `Cc1ccc(/C=C2/C(=O)c3ccc(C(=O)O)cc3C2=O)o1`, for which the IC50 is > 60 µM (inactive).

In the case of `CC(=O)Oc1ccccc1/C=C/c1nc2ccccc2c(=O)o1`, the IC50 is > 60 µM (inactive).

Take `CN(C)c1ccc(C2Nc3cccc4cccc(c34)N2)cc1`: the IC50 was > 60 µM (inactive).

Turning to `CCOc1ccc(-c2nc(CN3CCCCC3CCn3cccn3)c(C)o2)cc1` (centres undefined), the IC50 was > 60 µM (inactive).

Turning to `CC(=O)Nc1ccc(OS(=O)(=O)c2ccc([N+](=O)[O-])cc2)cc1`, the IC50 is > 60 µM (inactive).

Turning to `O=C(CN1C(=O)c2ccccc2S1(=O)=O)c1ccccc1Cl`, the IC50 entry is “inactive”.

Broadly, the IC50 is the concentration needed to halve the response being measured.

The values are drawn from PubChem BioAssay AID1912 (The Scripps Research Institute Molecular Screening Center, 2009).
